Key:
Format in all cases: in vivo, human
serum phosphorus = experiment: Phase 2 trial in anemic Stage III to V CKD subjects not on dialysis (Example 2): serum phosphorus
Procedure: This trial is a three-period clinical trial consisting of a screening period, a two-week washout period, and a 12-week treatment period.
If a subject has a serum phosphorus ≥6.0 mg/dL for at least two visits in a row during the 12-week treatment period, the subject is considered a treatment failure, stops study drug and exits the study.
The target level for serum phosphorus is 3.0 to 4.0 mg/dL. Subjects are titrated as follows: • 1. If serum phosphorus is at target (3.0 to 4.0 mg/dL), no adjustment in dose is required. • 2.
(§1) Change in serum phosphorus, ferritin and TSAT levels from baseline to end of treatment after 12 weeks are the primary endpoints.
The co-primary efficacy endpoints of this trial were the mean changes in serum phosphorus and TSAT from baseline to the end of the 12-week treatment period versus placebo in the ITT group.

ferritin = experiment: Phase 2 trial (Example 2): ferritin
Text: as §1
The key secondary endpoints of the study were the mean changes in ferritin, hemoglobin and FGF-23 from baseline to the end of the 12-week treatment period versus placebo in the ITT group.

hemoglobin = experiment: Phase 3 trial (Example 1): hemoglobin; set-up: Hemoglobin, Mean / Hemoglobin, Median / Hemoglobin, Change from Baseline, Mean / Hemoglobin, Change from Baseline, Median / Hemoglobin, LS Mean: unit not given here; settings: for Hemoglobin, Mean / Hemoglobin, Median / Hemoglobin, LS Mean / Hemoglobin, Change from Baseline, Mean / Hemoglobin, Change from Baseline, Median / Hemoglobin, Treatment Differences, LS Mean (KRX-0502) − LS Mean (control), (SE): Table 17
Text: Complete Blood Count (CBC) (white blood cell [WBC] count, white blood cell types [WBC differential], red blood cell [RBC] count, hematocrit [HCT], hemoglobin [Hgb], red blood cell indices, platelet [thrombocyte] count) was done at the Randomization Visit (Visit 4); at Visits 11 (Week 12), 14 (Week 24), 17 (Week 36), 20 (Week 48), and 21 (Week 52) of the 52-week Safety Assessment Period; and at Visit 25 (Week 56) of the Efficacy Assessment Period.

[1] = Week 12, last observation carried forward, ITT group, n = 72
[2] = Day 0 Baseline, Safety Assessment Period

## iron (+3), x (1, 2, 3-propanetricarboxylic acid, 2-hydroxy-), y (H2O) [KRX-0502]
Serum phosphorus; Baseline, ITT group, n = 72
  Mean Serum Phosphorus, Baseline: 4.5 mg/dL
Serum phosphorus; [1]
  Mean Serum Phosphorus, End of Treatment (Week 12): 3.9 mg/dL
Serum phosphorus; mean changes baseline to end of 12-week treatment vs placebo, ITT, 141 subjects
  co-primary (serum phosphorus, TSAT) and key secondary endpoints (ferritin, hemoglobin, FGF-23): met both co-primary and all key secondary endpoints with highly statistically significant results
Serum phosphorus; sample size assumption
  ending serum phosphorus at Visit 11 (Week 12): approximately 4.3 mg/dL
ferritin; Baseline, ITT group, n = 72
  Mean Ferritin, Baseline: 116 ng/mL
ferritin; [1]
  Mean Ferritin, End of Treatment (Week 12): 189 ng/mL
ferritin; sample size assumption
  ending ferritin level at Visit 11 (Week 12): approximately 300 ng/mL
hemoglobin; ANCOVA, Table E
  Mean Hemoglobin, LS Mean Difference from Active Control Group at Week 52: 0.4 g/dL
hemoglobin; Baseline (Day 0), Table E
  Mean Hemoglobin: 11.6 g/dL
hemoglobin; [2]
  Hemoglobin, Mean: 11.61
  Hemoglobin, Median: 11.45
hemoglobin; Table E
  Mean Hemoglobin, Change from Baseline at Week 52: -0.2 g/dL
hemoglobin; Week 12, ANCOVA
  Hemoglobin, LS Mean: 11.83
hemoglobin; Week 12
  Hemoglobin, Change from Baseline, Mean: 0.19
  Hemoglobin, Change from Baseline, Median: 0.10
  Hemoglobin, Mean: 11.82
  Hemoglobin, Median: 11.70
  Hemoglobin, Treatment Differences, LS Mean (KRX-0502) − LS Mean (control), (SE): 0.30 (0.14)
hemoglobin; Week 24, ANCOVA
  Hemoglobin, LS Mean: 11.56
hemoglobin; Week 24
  Hemoglobin, Change from Baseline, Mean: −0.08
  Hemoglobin, Change from Baseline, Median: −0.10
  Hemoglobin, Mean: 11.55
  Hemoglobin, Median: 11.30
  Hemoglobin, Treatment Differences, LS Mean (KRX-0502) − LS Mean (control), (SE): 0.12 (0.13)
hemoglobin; Week 36, ANCOVA
  Hemoglobin, LS Mean: 11.55
hemoglobin; Week 36
  Hemoglobin, Change from Baseline, Mean: −0.08
  Hemoglobin, Change from Baseline, Median: −0.10
  Hemoglobin, Mean: 11.54
  Hemoglobin, Median: 11.20
  Hemoglobin, Treatment Differences, LS Mean (KRX-0502) − LS Mean (control), (SE): 0.27 (0.14)
hemoglobin; Week 48, ANCOVA
  Hemoglobin, LS Mean: 11.52
hemoglobin; Week 48
  Hemoglobin, Change from Baseline, Mean: −0.12
  Hemoglobin, Change from Baseline, Median: −0.20
  Hemoglobin, Mean: 11.50
  Hemoglobin, Median: 11.20
  Hemoglobin, Treatment Differences, LS Mean (KRX-0502) − LS Mean (control), (SE): 0.30 (0.14)
hemoglobin; Week 52, ANCOVA
  Hemoglobin, LS Mean: 11.44
hemoglobin; Week 52, LOCF, Table E
  Mean Hemoglobin: 11.4 g/dL
hemoglobin; Week 52
  Hemoglobin, Change from Baseline, Mean: −0.20
  Hemoglobin, Change from Baseline, Median: −0.20
  Hemoglobin, Mean: 11.42
  Hemoglobin, Median: 11.20
  Hemoglobin, Treatment Differences, LS Mean (KRX-0502) − LS Mean (control), (SE): 0.36 (0.14)

Source: patent publication US20250360167A1 (Keryx Biopharmaceuticals, Inc., priority 2013, published 2025)
